Test results: US11814444B2, “Cyclic polypeptides for PCSK9 inhibition” (Ra Pharmaceuticals, Inc., priority 2018, dated 2023)
Numbered stars: 1 amine (or outer) side, 2 acyl side, 3 side chain; on linkers, the order of the positions; unused ones are H or OH. Bridge positions count the residues as written; N and C are the ends. Square brackets hold non-standard residues; d marks the D form. Peptide text beside a SMILES is read from it. Phe(4-guanidino) = N=C(N)Nc1ccc(C[C@H](N)C(=O)O)cc1; Phe(4-COOH) = N[C@@H](Cc1ccc(C(=O)O)cc1)C(=O)O; Trp(7-aza) = N[C@@H](Cc1c[nH]c2ncccc12)C(=O)O; Gly(piperidin-4-yl) = N[C@H](C(=O)O)C1CCNCC1; Leu(3R-OH) = CC(C)[C@@H](O)[C@H](N)C(=O)O; dBip = N[C@H](Cc1ccc(-c2ccccc2)cc1)C(=O)O; X1 = C[C@@](N[*:1])(C(=O)[*:2])c1ccccc1; 1Nal = N[C@@H](Cc1cccc2ccccc12)C(=O)O; mXylylene = c1cc(C[*:1])cc(C[*:2])c1; 3Pal = N[C@@H](Cc1cccnc1)C(=O)O; Chg = N[C@H](C(=O)O)C1CCCCC1; Tle = CC(C)(C)[C@H](N)C(=O)O; Iva = CC[C@](C)(N)C(=O)O; Ac5c = NC1(C(=O)O)CCCC1; Nva = CCC[C@H](N)C(=O)O; Thp = NC1(C(=O)O)CCOCC1; Aib = CC(C)(N)C(=O)O; Mpa = O=C(O)CCS

Legend:
PCSK9 = PCSK9 (Homo sapiens, UniProt Q8NBP7); assay: PCSK9 Alexa FRET Standard assay (displacement of AlexaFluor647 tagged cyclic peptide Reagent A); type: binding; conditions: 0.5 nM PCSK9, 20 nM AF cyclic peptide Reagent A
Chain of PCSK9 (Q8NBP7 153-692): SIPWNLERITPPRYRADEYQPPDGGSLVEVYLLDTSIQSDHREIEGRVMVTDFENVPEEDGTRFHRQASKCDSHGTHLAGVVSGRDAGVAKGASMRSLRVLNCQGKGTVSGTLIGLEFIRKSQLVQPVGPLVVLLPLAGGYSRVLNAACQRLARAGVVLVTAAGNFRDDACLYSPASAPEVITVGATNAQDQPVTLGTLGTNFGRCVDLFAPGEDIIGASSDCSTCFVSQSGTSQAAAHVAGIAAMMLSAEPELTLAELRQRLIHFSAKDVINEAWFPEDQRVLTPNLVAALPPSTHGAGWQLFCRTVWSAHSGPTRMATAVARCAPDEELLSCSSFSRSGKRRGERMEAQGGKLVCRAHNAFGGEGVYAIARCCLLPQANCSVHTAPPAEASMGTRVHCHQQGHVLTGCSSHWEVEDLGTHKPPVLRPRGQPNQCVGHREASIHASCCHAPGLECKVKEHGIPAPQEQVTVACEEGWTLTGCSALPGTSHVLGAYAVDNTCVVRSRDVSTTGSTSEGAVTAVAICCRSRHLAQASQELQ
Procedure: A solution containing 1 nM biotinylated PCSK9+2.5 nM Lance Streptavidin Europium (Strep-Eu) was made in 50 mM HEPES pH 7.4, 0.15 M NaCl, 5 mM CaCl2), 0.01% BSA, and 0.01% Surfactant P20. A separate solution containing 40 nM of the AlexaFluor tagged cyclic peptide was made in the same buffer system. An Echo was used to transfer 0.750 ul of compound to an assay plate followed by the addition of 15 ul of PCSK9+Stept-Eu and 15 ul of AF peptide. The final assay volume was 30.750 ul containing 0.5 nM PCSK9, 1.25 nM Strep-Eu, and 20 nM AF cyclic peptide. The reaction was incubated at room temperature for at least two hours prior to fluorescence measurements using an Envision Multilabel Reader. IC50 values were determined by fitting data to a sigmoidal dose-response curve using nonlinear regression. Ki was then calculated from the IC50 and the KD of AF cyclic peptide. Counts (B-counts) of the europium-labeled PCSK9 were followed to observe if compounds were […]. A fall off of the B-counts likely indicated a false positive of inhibition. Data from this procedure was reported as “A=‘numerical value’ (nanomolar)”

[1] = biological target: human PCSK9 / human LDLR EGFa domain interaction (Homo sapiens, UniProt Q8NBP7); assay: TR-FRET assay of inhibition of the PCSK9-LDLR protein-protein interaction; type: binding; conditions: 20 nM avitag-biotinylated human PCSK9, 20 nM his-tagged human LDLR EGFa domain, 2 hours, room temperature
Chain of human PCSK9 / human LDLR EGFa domain interaction (Q8NBP7 153-692): as above
Chain of human PCSK9 / human LDLR EGFa domain interaction (Q8NBP7 31-152 partner limits assumed): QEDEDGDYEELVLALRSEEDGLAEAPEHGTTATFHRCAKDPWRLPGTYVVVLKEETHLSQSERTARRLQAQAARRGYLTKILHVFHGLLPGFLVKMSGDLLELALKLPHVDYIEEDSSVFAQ
Procedure: A time-resolved fluorescence resonance energy (TR-FRET) assay was used to measure inhibition of the PCSK9-LDLR protein-protein interaction. Briefly, 20 nM avitag-biotinylated human PCSK9 was incubated with 20 nM his-tagged human LDLR EGFa domain in the presence of 5 nM LANCE Ulight Streptavidin (Perkin Elmer) and 5 nM europium-Anti-6×His (Perkin Elmer) for 2 hours covered at room temperature in buffer containing 50 mM HEPES, 150 mM NaCl, 5 mM CaCl2), 0.01% BSA and 0.01% Surfactant P20. Compounds were tested in dose-response and concentrations giving half-maximal inhibition calculated using a 4-parameter fit equation.

| Compound | IC50 (PCSK9) | IC50 [1] |
| --- | --- | --- |
| CCC[C@@H]1NC(=O)[C@H](Cc2c[nH]c3ncccc23)NC(=O)[C@H]([C@@H](C)O)NC(=O)C(C)(C)NC(=O)[C@H](Cc2ccc(O)cc2)NC(=O)[C@H](C(C)(C)C)NC(=O)CCSCc2cccc(c2)CSC[C@@H](C(N)=O)NC(=O)[C@H]([C@@H](C)O)NC(=O)[C@H](CCC)NC(=O)[C@H](Cc2ccc(O)cc2)NC(=O)[C@H](CCC(=O)O)NC1=O [Compound 005] ([Mpa][Tle]Y[Aib]T[Trp(7-aza)][Nva]EY[Nva]TC-NH2; linker 1-12 via mXylylene) | 21000 to 50000 nM |  |
| CCC[C@@H]1NC(=O)[C@H](Cc2c[nH]c3ncccc23)NC(=O)[C@H]([C@@H](C)O)NC(=O)[C@H](Cc2cccnc2)NC(=O)[C@H](Cc2ccc(O)cc2)NC(=O)[C@H](C(C)(C)C)NC(=O)CCSCc2cccc(c2)CSC[C@@H](C(N)=O)NC(=O)[C@H]([C@@H](C)O)NC(=O)[C@H](CCC)NC(=O)[C@H](Cc2ccc(O)cc2)NC(=O)[C@H](CCC(=O)O)NC1=O [Compound 113] ([Mpa][Tle]Y[3Pal]T[Trp(7-aza)][Nva]EY[Nva]TC-NH2; linker 1-12 via mXylylene) | 50000 to 100000 nM |  |
| CCC[C@@H]1NC(=O)[C@H](Cc2cccc3ccccc23)NC(=O)[C@H]([C@@H](C)O)NC(=O)[C@H](Cc2c[nH]cn2)NC(=O)[C@H](Cc2ccc(O)cc2)NC(=O)[C@H](C(C)(C)C)NC(=O)CCSCc2cccc(c2)CSC[C@@H](C(N)=O)NC(=O)[C@H]([C@@H](C)O)NC(=O)[C@H](CCC)NC(=O)[C@H](Cc2ccc(O)cc2)NC(=O)[C@H](CCC(=O)O)NC1=O [Compound 277] ([Mpa][Tle]YHT[1Nal][Nva]EY[Nva]TC-NH2; linker 1-12 via mXylylene) |  | 100 to 1000 nM |
| CCC[C@@H]1NC(=O)[C@H](Cc2c[nH]c3ncccc23)NC(=O)[C@H]([C@@H](C)O)NC(=O)[C@H](Cc2c[nH]cn2)NC(=O)[C@H](Cc2ccc(O)cc2)NC(=O)[C@H](C(C)(C)C)NC(=O)CCSCc2cccc(c2)CSC[C@@H](C(N)=O)NC(=O)[C@H]([C@@H](C)O)NC(=O)[C@H](CCC)NC(=O)[C@H](Cc2ccc(O)cc2)NC(=O)[C@H](Cc2ccc(C(=O)O)cc2)NC1=O [Compound 278] ([Mpa][Tle]YHT[Trp(7-aza)][Nva][Phe(4-COOH)]Y[Nva]TC-NH2; linker 1-12 via mXylylene) |  | 21000 to 50000 nM |
| CCC[C@@H]1NC(=O)[C@H](Cc2c[nH]c3ncccc23)NC(=O)[C@H]([C@@H](C)O)NC(=O)[C@H](Cc2c[nH]cn2)NC(=O)[C@H](Cc2ccc(O)cc2)NC(=O)[C@H](C(C)(C)C)NC(=O)CCSCc2cccc(c2)CSC[C@@H](C(N)=O)NC(=O)[C@H]([C@@H](C)O)NC(=O)[C@H](C2CCCCC2)NC(=O)[C@H](Cc2ccc(O)cc2)NC(=O)[C@H](CCC(=O)O)NC1=O [Compound 285] ([Mpa][Tle]YHT[Trp(7-aza)][Nva]EY[Chg]TC-NH2; linker 1-12 via mXylylene) |  | 100 to 1000 nM |
| CCC[C@@H]1NC(=O)[C@H](Cc2c[nH]c3ncccc23)NC(=O)[C@H](CC(N)=O)NC(=O)[C@H](Cc2c[nH]cn2)NC(=O)[C@H](Cc2ccc(O)cc2)NC(=O)[C@H](C(C)(C)C)NC(=O)CCSCc2cccc(c2)CSC[C@@H](C(N)=O)NC(=O)[C@H]([C@@H](C)O)NC(=O)[C@H](CCC)NC(=O)[C@H](Cc2ccc(O)cc2)NC(=O)[C@H](CCC(=O)O)NC1=O [Compound 287] ([Mpa][Tle]YHN[Trp(7-aza)][Nva]EY[Nva]TC-NH2; linker 1-12 via mXylylene) |  | 100 to 1000 nM |
| CCC[C@@H]1NC(=O)[C@H](Cc2ccc(O)cc2)NC(=O)[C@H](CCC(=O)O)NC(=O)[C@](C)(CC)NC(=O)[C@H](Cc2c[nH]c3ncccc23)NC(=O)[C@H]([C@@H](C)O)NC(=O)[C@H](Cc2c[nH]cn2)NC(=O)[C@H](Cc2ccc(O)cc2)NC(=O)[C@H](C(C)(C)C)NC(=O)CCSCc2cccc(c2)CSC[C@@H](C(N)=O)NC(=O)[C@H]([C@@H](C)O)NC1=O [Compound 291] ([Mpa][Tle]YHT[Trp(7-aza)][Iva]EY[Nva]TC-NH2; linker 1-12 via mXylylene) |  | 100 to 1000 nM |
| C[C@@H](O)[C@@H]1NC(=O)[C@H](Cc2c[nH]cn2)NC(=O)[C@H](Cc2ccc(O)cc2)NC(=O)[C@H](C(C)(C)C)NC(=O)CCSCc2cccc(c2)CSC[C@@H](C(N)=O)NC(=O)[C@H]([C@@H](C)O)NC(=O)[C@](C)(c2ccccc2)NC(=O)[C@H](Cc2ccc(O)cc2)NC(=O)[C@H](CCC(=O)O)NC(=O)C(C)(C)NC(=O)[C@H](Cc2c[nH]c3ncccc23)NC1=O [Compound 293] ([Mpa][Tle]YHT[Trp(7-aza)][Aib]EY[X1]TC-NH2; linker 1-12 via mXylylene) |  | 1 to 100 nM |
| CCC[C@@H]1NC(=O)[C@H](Cc2ccc(O)cc2)NC(=O)[C@H](CCC(=O)O)NC(=O)C2(CCCC2)NC(=O)[C@H](Cc2c[nH]c3ncccc23)NC(=O)[C@H]([C@@H](C)O)NC(=O)[C@H](Cc2c[nH]cn2)NC(=O)[C@H](Cc2ccc(O)cc2)NC(=O)[C@H](C(C)(C)C)NC(=O)CCSCc2cccc(c2)CSC[C@@H](C(N)=O)NC(=O)[C@H]([C@@H](C)O)NC1=O [Compound 299] ([Mpa][Tle]YHT[Trp(7-aza)][Ac5c]EY[Nva]TC-NH2; linker 1-12 via mXylylene) |  | 100 to 1000 nM |
| CCC[C@@H]1NC(=O)[C@H](Cc2ccc(O)cc2)NC(=O)[C@H](CCC(=O)O)NC(=O)C2(CCOCC2)NC(=O)[C@H](Cc2c[nH]c3ncccc23)NC(=O)[C@H]([C@@H](C)O)NC(=O)[C@H](Cc2c[nH]cn2)NC(=O)[C@H](Cc2ccc(O)cc2)NC(=O)[C@H](C(C)(C)C)NC(=O)CCSCc2cccc(c2)CSC[C@@H](C(N)=O)NC(=O)[C@H]([C@@H](C)O)NC1=O [Compound 300] ([Mpa][Tle]YHT[Trp(7-aza)][Thp]EY[Nva]TC-NH2; linker 1-12 via mXylylene) |  | 100 to 1000 nM |
| CCC[C@@H]1NC(=O)[C@H](Cc2c[nH]c3ncccc23)NC(=O)[C@H]([C@H](O)C(C)C)NC(=O)[C@H](Cc2c[nH]cn2)NC(=O)[C@H](Cc2ccc(O)cc2)NC(=O)[C@H](C(C)(C)C)NC(=O)CCSCc2cccc(c2)CSC[C@@H](C(N)=O)NC(=O)[C@H]([C@@H](C)O)NC(=O)[C@H](CCC)NC(=O)[C@H](Cc2ccc(O)cc2)NC(=O)[C@H](CCC(=O)O)NC1=O [Compound 305] ([Mpa][Tle]YH[Leu(3R-OH)][Trp(7-aza)][Nva]EY[Nva]TC-NH2; linker 1-12 via mXylylene) |  | 1000 to 21000 nM |
| CCC[C@@H]1NC(=O)[C@H](Cc2c[nH]c3ncccc23)NC(=O)[C@H]([C@@H](C)O)NC(=O)[C@H](Cc2c[nH]cn2)NC(=O)[C@H](Cc2ccc(O)cc2)NC(=O)[C@H](C(C)(C)C)NC(=O)CCSCc2cccc(c2)CSC[C@@H](C(N)=O)NC(=O)[C@H]([C@@H](C)O)NC(=O)[C@H](CCC)NC(=O)[C@H](Cc2ccc(NC(=N)N)cc2)NC(=O)[C@H](CCC(=O)O)NC1=O [Compound 323] ([Mpa][Tle]YHT[Trp(7-aza)][Nva]E[Phe(4-guanidino)][Nva]TC-NH2; linker 1-12 via mXylylene) |  | 1000 to 21000 nM |
| CCC[C@@H]1NC(=O)[C@H](Cc2c[nH]c3ncccc23)NC(=O)[C@H]([C@@H](C)O)NC(=O)[C@H](Cc2c[nH]cn2)NC(=O)[C@H](Cc2ccc(O)cc2)NC(=O)[C@H](C(C)(C)C)NC(=O)CCSCc2cccc(c2)CSC[C@@H](C(N)=O)NC(=O)[C@H]([C@@H](C)O)NC(=O)[C@H](CCC)NC(=O)[C@@H](Cc2ccc(-c3ccccc3)cc2)NC(=O)[C@H](CCC(=O)O)NC1=O [Compound 325] ([Mpa][Tle]YHT[Trp(7-aza)][Nva]E[dBip][Nva]TC-NH2; linker 1-12 via mXylylene) |  | 100 to 1000 nM |
| CCC[C@@H]1NC(=O)[C@H](Cc2c[nH]c3ncccc23)NC(=O)[C@H]([C@@H](C)O)NC(=O)[C@H](Cc2c[nH]cn2)NC(=O)[C@H](Cc2ccc(O)cc2)NC(=O)[C@H](C(C)(C)C)NC(=O)CCSCc2cccc(c2)CSC[C@@H](C(N)=O)NC(=O)[C@H]([C@@H](C)O)NC(=O)[C@H](C2CCNCC2)NC(=O)[C@H](Cc2ccc(O)cc2)NC(=O)[C@H](CCC(=O)O)NC1=O [Compound 331] ([Mpa][Tle]YHT[Trp(7-aza)][Nva]EY[Gly(piperidin-4-yl)]TC-NH2; linker 1-12 via mXylylene) |  | 1000 to 21000 nM |
| CCC[C@@H]1NC(=O)[C@H](Cc2c[nH]c3ncccc23)NC(=O)[C@H]([C@@H](C)OC)NC(=O)[C@H](Cc2c[nH]cn2)NC(=O)[C@H](Cc2ccc(O)cc2)NC(=O)[C@H](C(C)(C)C)NC(=O)CCSCc2cccc(c2)CSC[C@@H](C(N)=O)NC(=O)[C@H]([C@@H](C)O)NC(=O)[C@H](CCC)NC(=O)[C@H](Cc2ccc(O)cc2)NC(=O)[C@H](CCC(=O)O)NC1=O [Compound 333] ([Mpa][Tle]YHT(Me)[Trp(7-aza)][Nva]EY[Nva]TC-NH2; linker 1-12 via mXylylene) |  | 1000 to 21000 nM |
